Assay results reported in US20180008573A1, “METHODS AND COMPOSITIONS FOR REDUCING DAMAGE ASSOCIATED WITH OXIDATIVE PHOSPHORYLATION” (USANA Health Sciences, Inc., priority 2016, published 2018).

Columns and labels:
human PPARα = biological target: T1, human PPARα (Homo sapiens, UniProt Q07869); assay: PPARα agonist reporter assay (Gal4 hybrid receptor, luciferase, CHO cells); type: cell-based
T1 construct: expressed in transfected cells; host or cells: CHO
T1 sequence (Q07869 239-466 limits assumed): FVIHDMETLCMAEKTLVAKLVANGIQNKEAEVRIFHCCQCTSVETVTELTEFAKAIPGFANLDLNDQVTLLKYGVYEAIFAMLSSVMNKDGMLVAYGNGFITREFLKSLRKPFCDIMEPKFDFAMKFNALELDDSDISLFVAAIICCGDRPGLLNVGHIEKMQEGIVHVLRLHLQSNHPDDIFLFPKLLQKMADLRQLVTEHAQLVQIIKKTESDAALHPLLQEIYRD

human PPARγ = biological target: T2, human PPARγ (Homo sapiens, UniProt P37231); assay: PPARγ agonist reporter assay (Gal4 hybrid receptor, luciferase, CHO cells); type: cell-based
T2 construct: expressed in transfected cells; host or cells: CHO
T2 sequence (P37231 238-503 limits assumed): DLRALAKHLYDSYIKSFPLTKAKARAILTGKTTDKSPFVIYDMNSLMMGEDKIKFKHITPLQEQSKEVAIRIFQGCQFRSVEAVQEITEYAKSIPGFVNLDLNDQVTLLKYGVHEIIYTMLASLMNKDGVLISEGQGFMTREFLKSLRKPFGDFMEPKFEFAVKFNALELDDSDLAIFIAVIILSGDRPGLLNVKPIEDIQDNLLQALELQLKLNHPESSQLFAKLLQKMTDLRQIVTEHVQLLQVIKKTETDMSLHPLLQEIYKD

human NF-κB = assay: NF-κB antagonist reporter assay (NF-κB GRE-luciferase, HEK293 cells); type: cell-based;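 further: reporter cells carry native NF-κB receptor with firefly luciferase under upstream response elements, with a vehicle control included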
NF-κB reporter cells = assay: Live cell multiplex assay in the NF-κB antagonist assay; type: cell-based, human
Protocol: A vehicle control was prepared.

human PPARδ = biological target: T3, human PPARδ (Homo sapiens, UniProt Q03181); assay: PPARδ agonist reporter assay (Gal4 hybrid receptor, luciferase, CHO cells); type: cell-based
T3 construct: expressed in transfected cells; host or cells: CHO
T3 sequence (Q03181 211-439 limits assumed): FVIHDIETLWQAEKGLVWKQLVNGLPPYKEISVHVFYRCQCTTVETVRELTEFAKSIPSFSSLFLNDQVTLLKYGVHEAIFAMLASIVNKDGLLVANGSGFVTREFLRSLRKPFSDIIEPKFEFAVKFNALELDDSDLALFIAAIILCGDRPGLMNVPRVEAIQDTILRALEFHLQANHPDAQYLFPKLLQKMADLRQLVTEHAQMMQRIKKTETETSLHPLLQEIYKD

C. elegans strain CB5586 = assay: C. elegans phenotypic lifespan screening (Kaplan-Meier, Log-Rank, Fisher's Exact Test); type: in vivo; details: for restricted mean lifespan, # of Days: DMSO control 13.23
Protocol: Dilutions of the test formulations were applied to individual populations of C. elegans and the lifespan of each population was monitored. Any changes in the lifespan of an individual population compared to a control population were recorded and correlated to the respective test formulation (N356 or N357) and the respective dilution (0.1 mg/ml, 1 mg/ml, and 10 mg/ml).
The […] and N357 formulations were each prepared as individual 100 mg/ml stock solutions in dimethyl sulfoxide (DMSO). Serial dilutions of each stock solution were then prepared at 0.1 mg/ml, 1 mg/ml, and 10 mg/ml in DMSO. Control solutions of DMSO only were also prepared. Synchronous aged adult populations of C.elegans strain CB5586 worms were prepared. The CB5586 strain comprises a pharyngeal GFP (green fluorescent protein) tag and a mutation in the bus-5 gene. The pharyngeal GFP tag allows for fluorescent images of the worm populations to be taken. The mutation in the bus-5 gene causes the loss of normal cuticle antigens that permits the cuticle of the worms to become permeable to the test formulations and allow direct uptake of the test formulations to avoid interaction of the test formulations with protective mechanisms of the gut channel. Each serial dilution of each test formulation was added to a separate population of the prepared worms. The control solutions were also added to separate populations of the prepared worms. The populations of the prepared worms were then maintained on standard nematode growth media (NGM) agar plates at 20° C. with sufficient food (Escherichia coli strain OP-50).
Each worm population was then monitored by fluorescent imaging to determine the number of living and dead worms as a function of time. The fluorescent imaging was analyzed by software that recognized and counted worms based on their fluorescent intensity compared to background fluorescence. […] The ability to distinguish between living and dead worms allowed the number of living worms and cumulative number of dead worms to be monitored against time. Worm populations from a selection of fluorescent images were manually checked to verify that the software had accurately counted the number of living and dead worms.
The counts of the living and dead worms as a function of time were then analyzed for each of the worm populations and used to prepare Kaplan-Meier survival curves and associated statistics for each of the worm populations. […] The median lifespan is shown as the length of time after the last mitotic division that 50% of the test population remains viable when compared to the control population. The maximum lifespan extension is shown as the length of time after the last mitotic division that 5% of the test population remains viable when compared to the control population.
The counts of the living and dead worms as a function of time and the Kaplan-Meier survival curves and the associated statistics were then analyzed for each of the worm populations. The analysis included determining mean and median lifespan. The analysis included a non-parametric test, the Log-Rank test, that compares two survival functions for the overall lifespan assay and provides a reliable p-value summarizing the whole experiment. The analysis also included Fisher's Exact Test that calculated the significance of survival function comparisons at multiple specific time points throughout the experiment, rather than for the overall lifespan. The results of the analysis are shown below in Tables 10-17.
Phenotypic screening was carried out as described in EXAMPLE 2 for various individual compounds of the N357 formulation. […] Alpha lipoic acid was sourced from PureBulk USA as a racemic mix of R and S stereoisomers and was assigned a sample number of N198. Hesperidin was sourced from Sigma Aldrich at ≧80% purity and was assigned a sample number of N347. […]

O=C(O)CCCCC1CCSS1 (racemic) [Alpha lipoic acid, alpha lipoic acid]
PPARα Fold-Activation (human PPARα; 1.42 μg/ml active ingredient): 1.4 fold
PPARα Fold-Activation (human PPARα; 4.25 μg/ml active ingredient): 1.3 fold
PPARα Fold-Activation (human PPARα; 12.7 μg/ml active ingredient): 1.2 fold
PPARα Fold-Activation (human PPARα; 38.23 μg/ml active ingredient): 1.5 fold
PPARα Fold-Activation (human PPARα; 114.70 μg/ml active ingredient): 2.3 fold
agonist activity against human PPARα (human PPARα; at the concentrations tested): very low-level agonist activity
PPARγ Fold-Activation (human PPARγ; 1.42 μg/ml active ingredient): 1.1 fold
PPARγ Fold-Activation (human PPARγ; 4.25 μg/ml active ingredient): 1.1 fold
PPARγ Fold-Activation (human PPARγ; 12.7 μg/ml active ingredient): 1.3 fold
PPARγ Fold-Activation (human PPARγ; 38.23 μg/ml active ingredient): 1.4 fold
PPARγ Fold-Activation (human PPARγ; 114.70 μg/ml active ingredient): 3.4 fold
agonist activity against human PPARγ (human PPARγ; at the concentrations tested): very low-level agonist activity
induction concentration (PPARγ) (human PPARγ; in the mixture): 1.22 µg/mL
induction concentration (PPARγ) (human PPARγ; used alone): 114.8 µg/mL
NF-κB % Inhibition (human NF-κB; 1.42 μg/ml active ingredient): 3.1%
NF-κB % Inhibition (human NF-κB; 4.25 μg/ml active ingredient): −0.70%
NF-κB % Inhibition (human NF-κB; 12.7 μg/ml active ingredient): −6.1%
NF-κB % Inhibition (human NF-κB; 38.23 μg/ml active ingredient): 5.9%
NF-κB % Inhibition (human NF-κB; 114.70 μg/ml active ingredient): −14%
NF-κB % Live Cell (NF-κB reporter cells; 1.42 μg/ml active ingredient): 100%
NF-κB % Live Cell (NF-κB reporter cells; 4.25 μg/ml active ingredient): 104%
NF-κB % Live Cell (NF-κB reporter cells; 12.7 μg/ml active ingredient): 102%
NF-κB % Live Cell (NF-κB reporter cells; 38.23 μg/ml active ingredient): 104%
NF-κB % Live Cell (NF-κB reporter cells; 114.70 μg/ml active ingredient): 105%
PPARδ Fold-Activation (human PPARδ; 1.42 μg/ml active ingredient): 1.5 fold
PPARδ Fold-Activation (human PPARδ; 4.25 μg/ml active ingredient): 1.1 fold
PPARδ Fold-Activation (human PPARδ; 12.7 μg/ml active ingredient): 0.80 fold
PPARδ Fold-Activation (human PPARδ; 38.23 μg/ml active ingredient): 0.52 fold
PPARδ Fold-Activation (human PPARδ; 114.70 μg/ml active ingredient): 0.29 fold
Statistically Significant Result (lifespan vs. DMSO control) (C. elegans strain CB5586; 0.1 mg/ml): Statistically significant increase
extension of lifespan (C. elegans strain CB5586; 0.1 mg/ml): about 12.5%
population age in days at 25% mortality (C. elegans strain CB5586; 0.1 mg/ml): 14 days
population age in days at 50% mortality (C. elegans strain CB5586; 0.1 mg/ml): 16 days
population age in days at 75% mortality (C. elegans strain CB5586; 0.1 mg/ml): 18 days
effect on chronological lifespan (C. elegans strain CB5586; 0.1 mg/ml and 10 mg/ml tested): significant positive and dose dependent increase of chronological lifespan
% Change in Mean Lifespan (C. elegans strain CB5586; 0.1 mg/ml vs. DMSO control): +12.5%
restricted mean lifespan, # of Days (C. elegans strain CB5586; 0.1 mg/ml): 14.89 days
Statistically Significant Result (lifespan vs. DMSO control) (C. elegans strain CB5586; 10 mg/ml): Statistically significant increase
extension of lifespan (C. elegans strain CB5586; 10 mg/ml): about 12.5%
population age in days at 25% mortality (C. elegans strain CB5586; 10 mg/ml): 14 days
population age in days at 50% mortality (C. elegans strain CB5586; 10 mg/ml): 16 days
population age in days at 75% mortality (C. elegans strain CB5586; 10 mg/ml): 18 days
% Change in Mean Lifespan (C. elegans strain CB5586; 10 mg/ml vs. DMSO control): +12.5%
restricted mean lifespan, # of Days (C. elegans strain CB5586; 10 mg/ml): 14.85 days
